# From patent US10294202B2, “Pyrrolidinones as herbicides” (FMC Corporation, priority 2013, dated 2019)
# Columns and labels:
# [1] = test system: barnyardgrass; assay: Test A pre-/postemergence herbicide test; type: in vivo, Echinochloa crus-galli; settings: for Plant response rating, Barnyardgrass: 0 to 100 scale
# Procedure, shortened: (§1)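 Formulated compound (non-phytotoxic solvent, surfactant) sprayed pre- onto soil of seeded loam/sand pots or post- onto seedlings at 1–2 leaves; ~10 d greenhouse; 0–100 visual control rating versus untreated.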
# [2] = test system: foxtail, giant; assay: Test C pre-/postemergence herbicide test; type: in vivo, Setaria faberii
# Procedure, shortened: (§2)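 Compound solutions contained surfactant in a non-phytotoxic solvent. These were sprayed onto pots of loam/sand sown with seeds, and onto young plants (2 to 18 cm, 1- to 4-leaf) in sphagnum peat–vermiculite mix. Visual injury scores (0 none, 100 complete control) were recorded after 13 to 15 days.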
# [3] = test system: rice; assay: Test B flooded paddy test; type: in vivo, Oryza sativa; settings: 500 g ai/ha, Flood; scale of 0 to 100 where 0 is no effect and 100 is complete control
# Procedure, shortened: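 Scored visually 0–100 (0 no effect, 100 complete control) versus controls after 13 to 15 greenhouse days. Treatment: compound added to paddy water kept 3 cm above soil, on 2-leaf-stage plants.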
# [4] = test system: nutsedge, yellow; assay: Test C pre-/postemergence herbicide test; type: in vivo, Cyperus esculentus
# Procedure, shortened: as §2
# [5] = test system: velvetleaf; assay: Test C pre-/postemergence herbicide test; type: in vivo, Abutilon theophrasti
# Procedure, shortened: as §2
# [6] = test system: giant foxtail; assay: Test A pre-/postemergence herbicide test; type: in vivo, Setaria faberii; settings: for Plant response rating, Foxtail, Giant: 0 to 100 scale
# Procedure, shortened: as §1
# [7] = test system: oilseed rape; assay: Test C pre-/postemergence herbicide test; type: in vivo, Brassica napus
# Procedure, shortened: as §2
# [8] = test system: pigweed; assay: Test A pre-/postemergence herbicide test; type: in vivo, Amaranthus retroflexus; settings: for Plant response rating, Pigweed: 0 to 100 scale
# Procedure, shortened: as §1
# [9] = test system: blackgrass; assay: Test C pre-/postemergence herbicide test; type: in vivo, Alopecurus myosuroides; settings: for Blackgrass plant response rating: scale 0 to 100, 0 is no effect and 100 is complete control
# Procedure, shortened: as §2
# [10] = test system: corn; assay: Test A pre-/postemergence herbicide test; type: in vivo, Zea mays; settings: Postemergence; for Plant response rating, Corn: 125 g ai/ha, 0 to 100 scale, 0 is no effect, 100 is complete control; for Corn plant response rating (0 to 100 scale, 0 is no effect, 100 is complete control): 500 g ai/ha
# Procedure, shortened: as §1
# [11] = test system: johnsongrass; assay: Test C pre-/postemergence herbicide test; type: in vivo, Sorghum halepense
# Procedure, shortened: as §2
# [12] = 125 g ai/ha, visual rating, 0 no effect, 100 complete control, approximately 10 days, preemergence
# [13] = Postemergence, 125 g ai/ha, 0 is no effect, 100 is complete control
# [14] = preemergence, 500 g ai/ha, 0 is no effect and 100 is complete control
# [15] = Postemergence, 31 g ai/ha, scale 0 to 100 (0 no effect, 100 complete control)
# [16] = Postemergence, 62 g ai/ha, scale 0 (no effect) to 100 (complete control)
# [17] = Postemergence, 125 g ai/ha, scale 0 to 100 (0 no effect, 100 complete control)
# [18] = Postemergence, 250 g ai/ha, scale 0 to 100 (0 no effect, 100 complete control)
# [19] = Preemergence, 31 g ai/ha, scale 0 to 100, 0 is no effect and 100 is complete control
# [20] = Preemergence, 62 g ai/ha, scale 0 to 100 (0 no effect, 100 complete control)
# [21] = Preemergence, 125 g ai/ha, scale 0 to 100 (0 no effect, 100 complete control)
# [22] = Preemergence, 62 g ai/ha, scale 0 to 100
compound,measurement,setting,value
O=C1NCC(c2ccc(C(F)(F)F)cc2)C1C(=O)Nc1ccc(F)c(F)c1F (stereo not drawn) [Compound 232],"Plant response rating, Barnyardgrass",[1]; [12],90
same,"Plant response rating, Barnyardgrass",[1]; [13],80
same,"Barnyardgrass plant response rating (0 to 100 scale, 0 is no effect, 100 is complete control)","[1]; Postemergence, 500 g ai/ha",90
same,"Plant response rating, Barnyardgrass",[1]; [14],90
same,"Plant response rating, Foxtail, Giant",[2]; [15],0
same,"Plant response rating, Foxtail, Giant",[2]; [16],5
same,"Plant response rating, Foxtail, Giant",[2]; [17],15
same,"Plant response rating, Foxtail, Giant",[2]; [18],70
same,"Foxtail, Giant plant response rating",[2]; [19],85
same,"Foxtail, Giant plant response rating",[2]; [20],90
same,"Plant response rating, Foxtail, Giant",[2]; [21],90
same,"Plant response rating (scale of 0 to 100), Foxtail, Giant","[2]; Preemergence, 250 g ai/ha",95
same,"Plant response rating, Rice",[3],20
same,"Plant response rating, Nutsedge, Yellow",[4]; [15],0
same,"Plant response rating, Nutsedge, Yellow",[4]; [16],0
same,"Plant response rating, Nutsedge, Yellow",[4]; [17],5
same,"Plant response rating, Nutsedge, Yellow",[4]; [18],5
same,"Nutsedge, Yellow plant response rating",[4]; [19],0
same,"Nutsedge, Yellow plant response rating",[4]; [20],0
same,"Plant response rating, Nutsedge, Yellow",[4]; [21],0
same,"Plant response rating (scale of 0 to 100), Nutsedge, Yellow","[4]; Preemergence, 250 g ai/ha",100
same,"Plant response rating, Velvetleaf",[5]; [15],5
same,"Plant response rating, Velvetleaf",[5]; [16],15
same,"Plant response rating, Velvetleaf",[5]; [17],30
same,"Plant response rating, Velvetleaf",[5]; [18],60
same,Velvetleaf plant response rating,[5]; [19],25
same,Velvetleaf plant response rating,[5]; [20],40
same,"Plant response rating, Velvetleaf",[5]; [21],65
same,"Plant response rating (scale of 0 to 100), Velvetleaf","[5]; Preemergence, 250 g ai/ha",75
same,"Plant response rating, Foxtail, Giant",[6]; [12],90
same,"Plant response rating, Foxtail, Giant",[6]; [13],90
same,"Foxtail, Giant plant response rating (0 to 100 scale, 0 is no effect, 100 is complete control)","[6]; Postemergence, 500 g ai/ha",90
same,"Plant response rating, Foxtail, Giant",[6]; [14],90
same,"Plant response rating, Oilseed Rape",[7]; [15],0
same,"Plant response rating, Oilseed Rape",[7]; [16],50
same,"Plant response rating, Oilseed Rape",[7]; [17],65
same,"Plant response rating, Oilseed Rape",[7]; [18],40
same,Oilseed Rape plant response rating,[7]; [19],30
same,Oilseed Rape plant response rating,[7]; [20],30
same,"Plant response rating, Oilseed Rape",[7]; [21],50
same,"Plant response rating (scale of 0 to 100), Oilseed Rape","[7]; Preemergence, 250 g ai/ha",85
same,"Plant response rating, Pigweed",[8]; [12],50
same,"Plant response rating, Pigweed",[8]; [13],80
same,"Pigweed plant response rating (0 to 100 scale, 0 is no effect, 100 is complete control)","[8]; Postemergence, 500 g ai/ha",90
same,"Plant response rating, Pigweed",[8]; [14],60
same,"Plant response rating, Blackgrass",[9]; [15],0
same,"Plant response rating, Blackgrass",[9]; [16],0
same,"Plant response rating, Blackgrass",[9]; [17],0
same,"Plant response rating, Blackgrass",[9]; [18],0
same,Blackgrass plant response rating,"[9]; Preemergence, 31 g ai/ha",60
same,"Plant response rating, Blackgrass",[9]; [22],70
same,"Plant response rating, Blackgrass",[9]; [21],70
same,"Plant response rating (scale of 0 to 100), Blackgrass","[9]; Preemergence, 250 g ai/ha",85
same,"Plant response rating, Corn",[10],80
same,"Corn plant response rating (0 to 100 scale, 0 is no effect, 100 is complete control)",[10],80
same,"Plant response rating, Johnsongrass",[11]; [15],0
same,"Plant response rating, Johnsongrass",[11]; [16],20
same,"Plant response rating, Johnsongrass",[11]; [17],20
same,"Plant response rating, Johnsongrass",[11]; [18],25
same,Johnsongrass plant response rating,[11]; [19],0
same,Johnsongrass plant response rating,[11]; [20],20
same,"Plant response rating, Johnsongrass",[11]; [21],60
same,"Plant response rating (scale of 0 to 100), Johnsongrass","[11]; Preemergence, 250 g ai/ha",70
O=C1NCC(c2ccc(C(F)(F)F)cc2)C1C(=O)Nc1ccccc1Cl (stereo not drawn) [Compound 233],"Plant response rating, Barnyardgrass",[1]; [12],80
same,"Plant response rating, Barnyardgrass",[1]; [13],70
same,"Barnyardgrass plant response rating (0 to 100 scale, 0 is no effect, 100 is complete control)","[1]; Postemergence, 500 g ai/ha",90
same,"Plant response rating, Barnyardgrass",[1]; [14],90
same,"Foxtail, Giant plant response rating",[2]; [19],85
same,"Foxtail, Giant plant response rating",[2]; [20],90
same,"Plant response rating, Foxtail, Giant",[2]; [21],90
same,"Plant response rating (scale of 0 to 100), Foxtail, Giant","[2]; Preemergence, 250 g ai/ha",95
same,"Plant response rating, Rice",[3],0
same,"Nutsedge, Yellow plant response rating",[4]; [19],0
same,"Nutsedge, Yellow plant response rating",[4]; [20],0
same,"Plant response rating, Nutsedge, Yellow",[4]; [21],0
same,"Plant response rating (scale of 0 to 100), Nutsedge, Yellow","[4]; Preemergence, 250 g ai/ha",0
same,Velvetleaf plant response rating,[5]; [19],15
same,Velvetleaf plant response rating,[5]; [20],25
same,"Plant response rating, Velvetleaf",[5]; [21],45
same,"Plant response rating (scale of 0 to 100), Velvetleaf","[5]; Preemergence, 250 g ai/ha",45
same,"Plant response rating, Foxtail, Giant",[6]; [12],90
same,"Plant response rating, Foxtail, Giant",[6]; [13],90
same,"Foxtail, Giant plant response rating (0 to 100 scale, 0 is no effect, 100 is complete control)","[6]; Postemergence, 500 g ai/ha",90
same,"Plant response rating, Foxtail, Giant",[6]; [14],90
same,Oilseed Rape plant response rating,[7]; [19],0
same,Oilseed Rape plant response rating,[7]; [20],40
same,"Plant response rating, Oilseed Rape",[7]; [21],80
same,"Plant response rating (scale of 0 to 100), Oilseed Rape","[7]; Preemergence, 250 g ai/ha",85
same,"Plant response rating, Pigweed",[8]; [12],30
same,"Plant response rating, Pigweed",[8]; [13],0
same,"Pigweed plant response rating (0 to 100 scale, 0 is no effect, 100 is complete control)","[8]; Postemergence, 500 g ai/ha",20
same,"Plant response rating, Pigweed",[8]; [14],30
same,Blackgrass plant response rating,"[9]; Preemergence, 31 g ai/ha",30
same,"Plant response rating, Blackgrass",[9]; [22],45
same,"Plant response rating, Blackgrass",[9]; [21],60
same,"Plant response rating (scale of 0 to 100), Blackgrass","[9]; Preemergence, 250 g ai/ha",90
same,"Plant response rating, Corn",[10],20
same,"Corn plant response rating (0 to 100 scale, 0 is no effect, 100 is complete control)",[10],20
same,Johnsongrass plant response rating,[11]; [19],0
same,Johnsongrass plant response rating,[11]; [20],0
same,"Plant response rating, Johnsongrass",[11]; [21],20
same,"Plant response rating (scale of 0 to 100), Johnsongrass","[11]; Preemergence, 250 g ai/ha",45
